{"source": "patent US10561639B2", "about": "“Composition comprising a TNFR agonist and at least one thioredoxin inhibitor for use in the treatment of carcinoma” (UNIVERSITY OF HUDDERSFIELD, priority 2013, dated 2020)", "key": {"[1]": {"test_system": "Bladder carcinoma cells (EJ)", "assay": "Cytotox-Glo apoptosis assay in bladder carcinoma cells (EJ)", "format": "cell-based", "conditions": "48 hours, G28-5 10 ug/mL, PX-12 at minimally cytotoxic concentration, FIG. 1", "description": "Referring firstly to FIG. 1 where comparative results are shown from Bladder carcinoma cells (EJ) treated with soluble CD40 agonist (agonistic antibody G28-5), the indicated concentration of Trx inhibitor (PX-12), or their combination and results compared to untreated (Control) cells. Apoptosis was assessed 48 hours later using the Cytotox-Glo assay (Promega). Raw data (relative luminescence units) are shown and results are representative of three independent experiments in which six technical replicates were carried out for each condition.\nApoptosis was assessed 48 hours later using the Cytotox-Glo assay (Promega). Results are expressed as relative luciferase in comparison to negative controls and are representative of four independent experiments in which six technical replicates were carried out for each condition.\nCarcinoma cell lines EJ and HCT116 (obtained from the European Collection of Cell Cultures, ECACC) were maintained in a 50:50 (v/v) mixture of Dulbecco's Modified Eagle Medium (DMEM, Sigma) and Roswell Park Memorial Institute 1640 (RPMI, Sigma) (DR), supplemented with 5% Fetal calf serum (FCS, Biosera) and 1% (2 mM) L-Glutamine (Sigma). Cells were incubated at 37° C. in a humidified atmosphere of 5% CO2 in air. […] Cells were removed with a 10 mL suspension of DR 5% and counted in single cell suspension using an “improved Neubauer” haemocytometer (VWR). […]"}, "[2]": {"test_system": "colorectal carcinoma cells (HCT116)", "assay": "Sensolyte caspase activity assay in colorectal carcinoma cells (HCT116)", "format": "cell-based", "conditions": "24 hours, PX-12 3 μM, G28-5 10 ug/mL, FIG. 3", "description": "Apoptosis was assessed on the basis of caspase activity detection after 24 hours of treatment using the Sensolyte (Anaspec) assay (Cambridge Biosciences). Results are expressed as relative fluorescence (relative caspase activity) in comparison to negative controls and are representative of two independent experiments in which six technical replicates were carried out for each condition.\nCarcinoma cell lines EJ and HCT116 (obtained from the European Collection of Cell Cultures, ECACC) were maintained in a 50:50 (v/v) mixture of Dulbecco's Modified Eagle Medium (DMEM, Sigma) and Roswell Park Memorial Institute 1640 (RPMI, Sigma) (DR), supplemented with 5% Fetal calf serum (FCS, Biosera) and 1% (2 mM) L-Glutamine (Sigma). […] Cells were removed with a 10 mL suspension of DR 5% and counted in single cell suspension using an “improved Neubauer” haemocytometer (VWR).\nEJ and HT116 cells were seeded into white 96-well plates (at […] and 6×10^3 cells per well, respectively) and left incubated overnight. […] Cells were then incubated for 48 hours before assessing cell death using the CytoTox-Glo™ cell death detection assay (according to the manufacturer's instructions) on a FLUOstar™ OPTIMA (BMG Labtech) plate reader. Alternatively, after 24 or 48 hours caspase activity was determined using the SensoLyte® Homogenous AFC Caspase-3/7 Assay Kit (Anaspec). […]"}, "[3]": {"test_system": "colorectal carcinoma SW480 cells", "assay": "Cytotox-Glo % cell death in colorectal carcinoma SW480 cells", "format": "cell-based", "conditions": "12 hours, BS-1 5 microg/mL, PX-12 4 microM, FIG. 8", "description": "Apoptosis was assessed 12 hours later using the Cytotox-Glo assay (Promega). Results were obtained as relative luciferase activity in comparison to negative controls and subsequently percentage (%) cell death values were deduced for each condition according to the manufacturer's instructions. Results are representative of two independent experiments in which six technical replicates were carried out for each condition."}, "[4]": {"conditions": "PX-12 alone; cited from earlier work"}, "[5]": {"test_system": "ASK-1 protein knock-out EJ cell derivatives ('S18')", "assay": "Cytotox-Glo apoptosis assay in ASK-1 knock-out EJ derivatives treated with mCD40L", "format": "cell-based", "conditions": "S18 cells versus EJ cells, 48 hours, FIG. 5", "description": "(§1) The cells were treated with mCD40L and apoptosis was assessed 48 hours later using the Cytotox-Glo assay (Promega) and by measuring levels of phospho-JNK and Bax using immune-blotting. The images from the blotting can be seen in FIGS. 6a and 6b."}, "[6]": {"test_system": "phospho-JNK and Bax in ASK-1 knock-out EJ cell derivatives ('S18')", "assay": "Immunoblotting of phospho-JNK and Bax after mCD40L", "format": "cell-based", "conditions": "cells with ASK-1 knockdown (S18), FIGS. 6a and 6b", "description": "as §1"}}, "data": [{"molecule": "CCC(C)SSc1ncc[nH]1", "note": "(stereo not drawn) [PX-12, 2-[(1-Methylpropyl)dithio]-1H-imidazole]", "values": [{"measurement": "cytotoxicity / apoptosis (Cytotox-Glo, relative luminescence units)", "setting": "[1]", "result": "little"}, {"measurement": "cytotoxicity / apoptosis by caspase activation (relative caspase activity)", "setting": "[2]", "result": "some cytotoxicity"}, {"measurement": "pro-apoptotic activity / cytotoxicity (% Cell Death)", "setting": "[3]", "result": "some but not extensive cytotoxicity"}, {"measurement": "doses required for conventional PX-12 treatment to obtain cytotoxicity", "setting": "[4]", "result": "10 to 25", "unit": "µg/mL"}]}, {"molecule": "mCD40L: membrane CD40 ligand delivered by co-culture with growth-arrested third-party cells expressing mCD40L (protein, UniProt P29965 1-261, looked up, full-length expressed on growth-arrested feeder cells) MIETYNQTSPRSAATGLPISMKIFMYLLTVFLITQMIGSALFAVYLHRRLDKIEDERNLHEDFVFMKTIQRCNTGERSLSLLNCEEIKSQFEGFVKDIMLNKEETKKENSFEMQKGDQNPQIAAHVISEASSKTTSVLQWAEKGYYTMSNNLVTLENGKQLTVKRQGLYYIYAQVTFCSNREASSQAPFIASLCLKSPGRFERILLRAANTHSSAKPCGQQSIHLGGVFELQPGASVFVNVTDPSQVSHGTGFTSFGLLKL", "values": [{"measurement": "apoptosis after mCD40L in ASK-1 knockdown cells (Cytotox Glo)", "setting": "[5]", "result": "inhibition of apoptosis"}, {"measurement": "p-JNK and Bax induction", "setting": "[6]", "result": "lack of p-JNK and Bax induction"}]}]}
